Data set [1] has as its target T1, DPP-IV (Homo sapiens, UniProt P27487).
T1 construct: an extract of human colon carcinoma cell line Caco-2 is used as the DPP IV source; endogenous in cells; host or cells: Caco-2 (human colon carcinoma), differentiated to induce DPP-IV expression; Nonidet-P40 solubilised extract
The data set is described as follows: DPP-IV assay with Caco-2 cell extract as DPP IV source, AFC substrate, fluorescence. The class given is biochemical. Conditions: extract of human colon carcinoma cell line Caco-2; substrate 100 μM; 60 minutes at ambient temperature; read-out: DPP IV inhibition IC50. As for the experimental part:
The differentiation of the cells in order to induce the DPP-IV expression was carried out as described by Reiher et al. in an article entitled “Increased expression of intestinal cell line Caco-2”, which appeared in Proc. Natl. Acad. Sci. Vol. 90, pages 5757-5761 (1993). The cell extract was obtained from cells solubilised in a buffer (10 mM Tris HCl, 0.15 M NaCl, 0.04 t.i.u. aprotinin, 0.5% Nonidet-P40, pH 8.0) by centrifuging at 35,000 g for 30 minutes at 4° C. (to remove cell debris).
The DPP-IV assay was carried out as follows:
50 μl substrate solution (AFC; AFC is amido-4-trifluoromethylcoumarin), final concentration 100 μM, were placed in black microtitre plates. 20 μl of assay buffer (final concentrations 50 mM Tris HCl pH 7.8, 50 mM NaCl, 1% DMSO) was pipetted in. The reaction was started by adding 30 μl of solubilised Caco-2 protein (final concentration 0.14 μg of protein per well). The test substances to be investigated were typically added prediluted in 20 μl, and the volume of assay buffer was then reduced accordingly. The reaction was carried out at ambient temperature, incubating for 60 minutes. Then the fluorescence was measured in a Victor 1420 Multilabel Counter, the excitation wavelength being 405 nm and the emission wavelength being 535 nm. Blank readings (corresponding to 0% activity) were obtained in mixtures without any Caco-2 protein (volume replaced by assay buffer), control values (corresponding to 100% activity) were obtained in mixtures with no substance added.

Data set [2] in a line: Tolerability after oral administration to rats. Type of data set: in vivo. The following applies: 30 mg/kg.

Where a name gives a salt, the structure may show the parent alone.

T1 sequence (P27487 whole entry): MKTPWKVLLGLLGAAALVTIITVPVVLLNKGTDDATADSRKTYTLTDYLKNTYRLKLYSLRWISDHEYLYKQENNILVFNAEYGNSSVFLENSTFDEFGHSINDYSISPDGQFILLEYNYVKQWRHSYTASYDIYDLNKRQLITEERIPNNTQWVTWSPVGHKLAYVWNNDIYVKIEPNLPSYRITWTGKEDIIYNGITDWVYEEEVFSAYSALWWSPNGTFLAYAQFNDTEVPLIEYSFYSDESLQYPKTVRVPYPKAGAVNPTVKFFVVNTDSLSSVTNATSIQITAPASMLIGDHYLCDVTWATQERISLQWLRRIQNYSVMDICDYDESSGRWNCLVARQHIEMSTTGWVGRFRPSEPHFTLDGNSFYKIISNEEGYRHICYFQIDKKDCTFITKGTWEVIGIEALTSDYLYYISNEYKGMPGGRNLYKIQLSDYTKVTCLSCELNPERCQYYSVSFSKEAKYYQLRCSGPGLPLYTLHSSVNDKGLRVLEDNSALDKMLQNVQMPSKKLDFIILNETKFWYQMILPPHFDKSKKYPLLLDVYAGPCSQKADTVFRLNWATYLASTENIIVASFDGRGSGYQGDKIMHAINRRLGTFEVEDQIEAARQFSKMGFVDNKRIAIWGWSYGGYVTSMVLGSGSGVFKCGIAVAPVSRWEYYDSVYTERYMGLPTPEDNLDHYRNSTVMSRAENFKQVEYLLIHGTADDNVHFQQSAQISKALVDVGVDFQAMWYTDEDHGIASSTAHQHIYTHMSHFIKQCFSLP

`CSc1nc2nc(N3CCCC(N)C3)n(Cc3ccccc3)c2c(=O)[nH]1` (stereo not shown) [1(14), 8-(3-amino-piperidin-1-yl)-7-benzyl-2-methylsulphanyl-1,7-dihydro-purin-6-one hydrochloride]: the IC50 in data set [1] was determined as 0.158 µM.
Same read-out and setting: with `CC(C)Nc1nc2nc(N3CCCC(N)C3)n(Cc3ccccc3)c2c(=O)n1C` (stereo not shown) [1(3), 8-(3-amino-piperidin-1-yl)-7-benzyl-2-isopropylamino-1-methyl-1,7-dihydro-purin-6-one trifluoroacetate] the figure was 0.11 µM.
For `CN(C)c1nc2nc(N3CCCC(N)C3)n(Cc3ccccc3)c2c(=O)n1C` (stereo not shown) [1(8), 8-(3-amino-piperidin-1-yl)-7-benzyl-2-dimethylamino-1-methyl-1,7-dihydro-purin-6-one trifluoroacetate], the 50% inhibitory concentration (IC50) in data set [1] worked out at 0.213 µM.
`Cn1c(NCc2ccccc2)nc2nc(N3CCCC(N)C3)n(Cc3ccccc3)c2c1=O` (stereo not shown) [Example 1, 8-(3-amino-piperidin-1-yl)-7-benzyl-2-benzylamino-1-methyl-1,7-dihydro-purin-6-one]: the IC50 in data set [1] came to 0.011 µM. Besides, the “toxic side effects or changes in the animals' behaviour” value in data set [2] was “no toxic side effects or changes in the animals' behaviour could be detected”.
`CC(C)=CCn1c(N2CCCC(N)C2)nc2nc(C)n(Cc3cccc4ccccc34)c(=O)c21` (stereo not shown) [1(26), 8-(3-amino-piperidin-1-yl)-2-methyl-7-(3-methyl-but-2-en-1-yl)-1-[(naphthalen-1-yl)methyl]-1,7-dihydro-purin-6-one]: in data set [1], the IC50 was 0.04 µM.
Still for that read-out and setting: with `Cc1nc2nc(N3CCCC(N)C3)n(Cc3ccccc3)c2c(=O)n1C` (stereo not shown) [1(11), 8-(3-amino-piperidin-1-yl)-7-benzyl-1-methyl-2-methyl-1,7-dihydro-purin-6-one trifluoroacetate] the figure was 0.054 µM; with `Cn1c(NCc2ccc(F)cc2)nc2nc(N3CCCC(N)C3)n(Cc3ccccc3)c2c1=O` (stereo not shown) [1(1), 8-(3-amino-piperidin-1-yl)-7-benzyl-2-(4-fluoro-benzylamino)-1-methyl-1,7-dihydro-purin-6-one trifluoroacetate], 0.024 µM.
Turning to `NC1CCCN(c2nc3nc(SCc4ccccc4)[nH]c(=O)c3n2Cc2ccccc2)C1` (stereo not shown) [1(15), 8-(3-amino-piperidin-1-yl)-7-benzyl-2-benzylsulphanyl-1,7-dihydro-purin-6-one trifluoroacetate], in data set [1], the IC50 came out at 0.058 µM.
As to `Cn1c(NCCc2ccccc2)nc2nc(N3CCCC(N)C3)n(Cc3ccccc3)c2c1=O` (stereo not shown) [1(2), 8-(3-amino-piperidin-1-yl)-7-benzyl-1-methyl-2-[(2-phenylethyl)amino]-1,7-dihydro-purin-6-one trifluoroacetate], the half-inhibitory concentration (IC50) in data set [1] worked out at 0.042 µM.
The same measure, in the same setting: the result for `CC(C)=CCn1c(N2CCCC(N)C2)nc2ncn(Cc3cccc4ccccc34)c(=O)c21` (stereo not shown) [1(27), 8-(3-amino-piperidin-1-yl)-7-(3-methyl-but-2-en-1-yl)-1-[(naphthalen-1-yl)methyl]-1,7-dihydro-purin-6-one] reads 0.019 µM.
The same measure, in the same setting: the result for `Cn1c(NC2CCCCC2)nc2nc(N3CCCC(N)C3)n(Cc3ccccc3)c2c1=O` (stereo not shown) [1(5), 8-(3-amino-piperidin-1-yl)-7-benzyl-2-cyclohexylamino-1-methyl-1,7-dihydro-purin-6-one trifluoroacetate] reads 0.134 µM.
Still for that read-out and setting: with `CC(C)=CCn1c(N2CCCC(N)C2)nc2nc(C)n(Cc3ccccc3)c(=O)c21` (stereo not shown) [1(25), 8-(3-amino-piperidin-1-yl)-1-benzyl-2-methyl-7-(3-methyl-but-2-en-1-yl)-1,7-dihydro-purin-6-one] the figure was 0.275 µM.
Consider `CNc1nc2nc(N3CCCC(N)C3)n(Cc3ccccc3)c2c(=O)n1C` (stereo not shown) [1(4), 8-(3-amino-piperidin-1-yl)-7-benzyl-1-methyl-2-methylamino-1,7-dihydro-purin-6-one trifluoroacetate], for which the half-maximal inhibitory concentration (IC50) in data set [1] stood at 0.058 µM.
Same read-out and setting: with `Cn1c(NCC2CCCCC2)nc2nc(N3CCCC(N)C3)n(Cc3ccccc3)c2c1=O` (stereo not shown) [1(6), 8-(3-amino-piperidin-1-yl)-7-benzyl-2-cyclohexylmethylamino-1-methyl-1,7-dihydro-purin-6-one trifluoroacetate] the figure was 0.048 µM; with `NC1CCCN(c2nc3ncn(CC(=O)c4ccccc4)c(=O)c3n2Cc2ccccc2)C1` (stereo not shown) [1(22), 8-(3-amino-piperidin-1-yl)-7-benzyl-1-(2-oxo-2-phenyl-ethyl)-1,7-dihydro-purin-6-one trifluoroacetate], 0.048 µM; with `Cn1c(N2CCCCC2)nc2nc(N3CCCC(N)C3)n(Cc3ccccc3)c2c1=O` (stereo not shown) [1(7), 8-(3-amino-piperidin-1-yl)-7-benzyl-1-methyl-2-(piperidin-1-yl)-1,7-dihydro-purin-6-one hydrochloride], 0.434 µM.
The same measure, in the same setting: with `Cn1c(CC(=O)c2ccccc2)nc2nc(N3CCCC(N)C3)n(Cc3ccccc3)c2c1=O` (stereo not shown) [1(23), 8-(3-amino-piperidin-1-yl)-7-benzyl-1-methyl-2-(2-oxo-2-phenyl-ethyl)-1,7-dihydro-purin-6-one] the figure was 0.157 µM; with `Cn1c(N)nc2nc(N3CCCC(N)C3)n(Cc3ccccc3)c2c1=O` (stereo not shown) [1(9), 2-amino-8-(3-amino-piperidin-1-yl)-7-benzyl-1-methyl-1,7-dihydro-purin-6-one trifluoroacetate], 0.061 µM.
Still for that read-out and setting: with `CC(C)=CCn1c(N2CCCC(N)C2)nc2nc(CCc3ccccc3)n(C)c(=O)c21` (stereo not shown) [1(12), 8-(3-amino-piperidin-1-yl)-1-methyl-7-(3-methyl-but-2-en-1-yl)-2-(2-phenylethyl)-1,7-dihydro-purin-6-one trifluoroacetate] the figure was 0.018 µM; with `COc1ccc(Cn2cnc3nc(N4CCCC(N)C4)n(CC=C(C)C)c3c2=O)c2ccccc12` (stereo not shown) [1(28), 8-(3-amino-piperidin-1-yl)-7-(3-methyl-but-2-en-1-yl)-1-[(4-methoxy-naphthalen-1-yl)methyl]-1,7-dihydro-purin-6-one], 0.057 µM.
Consider `Cn1c(C#N)nc2nc(N3CCCC(N)C3)n(Cc3ccccc3)c2c1=O` (stereo not shown) [1(24), 8-(3-amino-piperidin-1-yl)-7-benzyl-2-cyano-1-methyl-1,7-dihydro-purin-6-one trifluoroacetate], for which the 50% inhibitory concentration (IC50) in data set [1] came out at 0.113 µM.

As usually defined, the IC50 is the concentration at which inhibition is half-maximal.

For the origin of these results see patent US7569574B2, “Purine derivatives, the preparation thereof and their use as pharmaceutical compositions” (Boehringer Ingelheim Pharma GmbH & Co. KG, priority 2002, dated 2009).
